Laboratory results as given in patent US20020099098A1, “Method for treating sexual disorders” (priority 2001, published 2002).

Tested on: patients
Assay: randomised placebo-controlled double-blind study of deramciclane
Format: in vivo
Conditions: for number of patients with decreased libido: placebo 2 out of 51, p=0.04, Chi-square-test
Description: The effects of deramciclane were studied in a randomised placebo-controlled double-blind study. The subjects were randomly assigned to four parallel groups to receive one tablet twice daily (b.i.d) of a placebo, 5 mg (=10 mg/day), 15 mg (=30 mg/day), or 30 mg (=60 mg/day) deramciclane.
When analyzing the number of patients with decreased libido, 2 out of 51 patients on placebo experienced it, but none of the patients treated with deramciclane 15 mg b.i.d. (n=53) or 30 mg b.i.d.(n=54) experienced decreased libido (p=0.04, Chi-square-test). In addition, when the Udvalg for Kliniske Undersogelser (UKU) scale was used, 21% of 53 patients experienced orgastic dysfunction at the baseline but only 12% of them after 8-week treatment with deramciclane 15 mg b.i.d.

CN(C)CCO[C@]1(c2ccccc2)C[C@H]2CC[C@]1(C)C2(C)C [deramciclane, (1R,2S,4R)-(−)-2-phenyl 2-(dimethylaminoethoxy)-1,7,7-trimethyl-bicyclo[2.2.1]heptane]
patients experiencing orgastic dysfunction (UKU scale) (after 8-week treatment with deramciclane 15 mg b.i.d., baseline 21% of 53 patients): 12%
number of patients with decreased libido (deramciclane 15 mg b.i.d. (=30 mg/day), n=53): none
number of patients with decreased libido (deramciclane 30 mg b.i.d. (=60 mg/day), n=54): none
